{
  "source": "patent US11155576B2",
  "about": "“Synthetic peptides, enzymatic formation of pericellular hydrogels/nanofibrils, and methods of use” (BRANDEIS UNIVERSITY, priority 2014, dated 2021)",
  "key": {"HeLa cells [1]": {"test_system": "HeLa cells", "experiment": "Confocal microscopy, Congo red/DAPI staining, HeLa", "type": "cell-based, human", "settings": "280 μM, 12 hours", "experimental": "(§1) Cells in exponential growth phase were seeded in a glass bottomed culture chamber at 2×10^4 cells/well. Cells were allowed to attach for 24 hours at 37° C., 5% CO2. The culture medium was removed, and replaced with culture medium containing D-2a at 280 μM. Following 12 hours of incubation, cells were washed 3 times with PBS prior to being stained with 0.1 mg/mL Congo red and 0.6 μM DAPI in PBS buffer (30 minutes at 37° C. in the dark). Next, cells were rinsed three times with PBS, and then kept in PBS for imaging.\nPericellular nanofibrils and cellular nuclei can be visualized using Congo red and DAPI, respectively (Kapuscinski, Biotech. Histochem. 70:220-233 (1995); Binder et al., Angew. Chem. Int. Ed. 45:7324-7328 (2006), each of which is hereby incorporated by reference in its entirety)."}, "phosphatases": {"test_system": "phosphatases", "experiment": "Phosphatase activity assay of gel, suspension and control medium of HeLa cells", "type": "cell-based, human", "settings": "HeLa cells treated with 560 μM D-2a, after removing the hydrogel", "experimental": "Phosphatase activity was evaluated by the alkaline phosphatase assay using the Abcam Alkaline Phosphatase Assay Kit following the supplied protocol. In brief, 50 μL of 5 mM pNPP solution in assay buffer was mixed with 80 μL of the sample solutions in 96 well plate. The mixed solution was incubated at 25° C., protected from light. 20 μL of stop solution was added to each test and the OD at 405 nm of the solution was measured in a microplate reader.\nTo verify whether the pericellular hydrogel/nanonets block the entry of secretory proteins/enzymes into the culture medium, the amount of phosphatases in four experimental samples was evaluated: blank medium (Blank), medium incubated with untreated HeLa cells (Control), the pericellular hydrogel from HeLa cells treated with 560 μM D-2a for 12 hours (Gel), and the suspension of the medium of HeLa cells treated with D-2a after removing the hydrogel (Suspension). The amount of phosphatases accumulated in the Gel is about 27 times higher than that found in the Control (FIG. 3B). […] In other words, the pericellular hydrogel/nanonets largely block cellular mass exchange between the cells and their environment."}, "HeLa cells [2]": {"test_system": "HeLa cells", "experiment": "Cell migration (wound healing) assay", "type": "cell-based, human", "settings": "18 hours", "experimental": "Cell migration was evaluated using the wound healing assay with the CytoSelect™ Wound Healing Assay Kit (Cell Biolabs, Inc). Wound healing inserts with width at 0.9 mm were placed into 24-well plates. 0.8 mL of HeLa cells at 2×10^5 cells/mL were added to either side of the insert and incubated overnight to form a confluent layer. Inserts were then carefully removed to expose the gap. After removing the culture medium, new medium containing the molecules was added to cells. The cells were next incubated at 37° C., 5% CO2 for 18 hours. Images of gaps before and after the addition of the molecules were captured using a microscope at a magnification of ×40. Cell migration was quantified by measuring the change in gap distance."}, "HeLa cells [3]": {"test_system": "HeLa cells", "experiment": "Cell adhesion assay", "type": "cell-based, human", "settings": "560 μM, trypsinized HeLa cells, at 4 hours", "experimental": "Cells in exponential growth phase were detached using 0.25% trypsin-EDTA. After neutralizing trypsin by addition of complete culture medium, the cells were collected by centrifuge (1000 rpm, 3 min). The cell pellet was suspended by addition of culture medium to a concentration of 4×10^5 cells/mL. 1 mL of the cell suspension was mixed with 1 mL of 2×D-2a or D-2b containing culture media. The resulting solutions were added into 96 well plate at 100 μL/well. After the desired time of incubation at 37° C., 5% CO2, the solution was gently removed, and then 100 μL of culture medium and 10 μL of 5 mg/mL MTT were added to each well. Following 4 hour incubation in the dark, 100 μL of 10% SDS with 0.01M HCl was added to each well to stop the reduction reaction and to dissolve the purple. After incubation of the cells at 37° C. for overnight, the viability was measured. Data represent the mean±standard deviation of three independent experiments."}, "MES-SA cells [4]": {"test_system": "MES-SA cells", "experiment": "Cell viability assay (MTT), MES-SA", "type": "cell-based", "settings": "280 μM", "experimental": "Cells in exponential growth phase were seeded in a 96 well plate at a concentration of 2×10^4 cells/well. The cells were allowed to attach to the wells for 24 hours at 37° C., 5% CO2. The culture medium was removed and 100 μL culture medium containing compounds (immediately diluted from fresh prepared stock solution of 10 mM) at gradient concentrations (0 μM as the control) was placed into each well. After culturing at 37° C., 5% CO2 for 48 hours, each well was added by 10 μL of 5 mg/mL MTT (3-(4,5-dimethylthiazoL-2-yl)-2,5-diphenyltetrazolium bromide), and the plated cells were incubated in the dark for 4 hours. 100 μL 10% SDS with 0.01M HCl was added to each well to stop the reduction reaction and to dissolve the purple. After overnight incubation of the cells at 37° C., the OD at 595 nm of the solution was measured in a microplate reader. Data represent the mean±standard deviation of three independent experiments."}, "MES-SA cells [5]": {"test_system": "MES-SA cells", "experiment": "Pericellular hydrogel/nanonets on MES-SA cells (Congo red/DAPI)", "type": "cell-based", "settings": "280 μM, 12 hours", "experimental": "(§2) FIG. 11 illustrates overlaid and 3D stacked z-scan images of Congo red and DAPI stained MES-SA and MES-SA/Dx5 cells treated with either 280 μM D-2a (upper panel) or medium alone (control, lower panel) for 12 hours. Scale bar=[…]. White dots outline the cells.\nas §1"}, "MES-SA/dx5 cells": {"test_system": "MES-SA/dx5 cells", "experiment": "Pericellular hydrogel/nanonets on MES-SA/dx5 cells (Congo red/DAPI)", "type": "cell-based, human", "settings": "280 μM, 12 hours", "experimental": "as §2, §1"}, "[6]": {"test_system": "Alkaline-phosphatase (“ALP”)", "settings": "D-2a 0.20 wt %/2.77 mM", "description": "[…] Scale bar=100 nm.\nNapthalene capped tripeptide precursor molecule D-2a and hydrogelator molecule D-2b, synthesized according to Yang et al. (Small 3:558-562 (2007), which is hereby incorporated by reference in its entirety), are comprised of the tripeptide D-Phe-D-Phe-D-Tyr (FIG. 1B). The D-Tyr of D-2a is phosphorylated (FIG. 1B)."}},
  "data": [
    {"smiles": "O=C(Cc1ccc2ccccc2c1)N[C@H](Cc1ccccc1)C(=O)N[C@H](Cc1ccccc1)C(=O)N[C@H](Cc1ccc(OP(=O)(O)O)cc1)C(=O)O", "note": "[D-2a, Nap-D-Phe-D-Phe-D-Tyr(PO3H2)]", "values": [
      {"measurement": "Congo red fluorescence on cells", "setting": "HeLa cells [1]", "result": "fluorescence (red) that outlines the cell shape"},
      {"measurement": "DAPI entry into cells", "setting": "HeLa cells [1]", "result": "DAPI is unable to enter"},
      {"measurement": "Amount of phosphatases in the Suspension relative to the Control", "setting": "phosphatases", "result": "significantly lower than that in the Control"},
      {"measurement": "Cell migration (gap)", "setting": "HeLa cells [2]; 280 μM", "result": "gaps larger than those of untreated cells"},
      {"measurement": "Cell migration (gap)", "setting": "HeLa cells [2]; 560 μM", "result": "gaps larger than those of untreated cells"},
      {"measurement": "Cells reattached to surface", "setting": "HeLa cells [3]", "result": "less than 5%"},
      {"measurement": "Growth inhibition", "setting": "MES-SA cells [4]", "result": "inhibits the growth"},
      {"measurement": "Pericellular hydrogel/nanonets formation", "setting": "MES-SA cells [5]", "result": "forms pericellular hydrogel/nanonets"},
      {"measurement": "Pericellular hydrogel/nanonets formation", "setting": "MES-SA/dx5 cells", "result": "forms pericellular hydrogel/nanonets"},
      {"measurement": "Hydrogel formation after ALP-catalyzed dephosphorylation", "setting": "[6]", "result": "self assembles to form the nanofibrils of a hydrogel"}
    ]}
  ]
}
